Measurements from PubChem BioAssay AID588490 (The Scripps Research Institute Molecular Screening Center, 2011).

Assays:
Test in all cases: PubChem AID 588490; call rule not given here
[1] = target: Protein-arginine deiminase type-1 (Homo sapiens) (UniProt Q9ULC6); details: recombinant PAD1-4, BAEE citrulline colorimetric absorbance; PAD1
[2] = target: Protein-arginine deiminase type-3 (Homo sapiens) (UniProt Q9ULW8); details: recombinant PAD1-4, BAEE citrulline colorimetric absorbance; PAD3
[3] = target: Protein-arginine deiminase type-2 (Homo sapiens) (UniProt Q9Y2J8); details: recombinant PAD1-4, BAEE citrulline colorimetric absorbance; PAD2
Chain of Protein-arginine deiminase type-2 (Homo sapiens) (Q9Y2J8 whole entry, looked up): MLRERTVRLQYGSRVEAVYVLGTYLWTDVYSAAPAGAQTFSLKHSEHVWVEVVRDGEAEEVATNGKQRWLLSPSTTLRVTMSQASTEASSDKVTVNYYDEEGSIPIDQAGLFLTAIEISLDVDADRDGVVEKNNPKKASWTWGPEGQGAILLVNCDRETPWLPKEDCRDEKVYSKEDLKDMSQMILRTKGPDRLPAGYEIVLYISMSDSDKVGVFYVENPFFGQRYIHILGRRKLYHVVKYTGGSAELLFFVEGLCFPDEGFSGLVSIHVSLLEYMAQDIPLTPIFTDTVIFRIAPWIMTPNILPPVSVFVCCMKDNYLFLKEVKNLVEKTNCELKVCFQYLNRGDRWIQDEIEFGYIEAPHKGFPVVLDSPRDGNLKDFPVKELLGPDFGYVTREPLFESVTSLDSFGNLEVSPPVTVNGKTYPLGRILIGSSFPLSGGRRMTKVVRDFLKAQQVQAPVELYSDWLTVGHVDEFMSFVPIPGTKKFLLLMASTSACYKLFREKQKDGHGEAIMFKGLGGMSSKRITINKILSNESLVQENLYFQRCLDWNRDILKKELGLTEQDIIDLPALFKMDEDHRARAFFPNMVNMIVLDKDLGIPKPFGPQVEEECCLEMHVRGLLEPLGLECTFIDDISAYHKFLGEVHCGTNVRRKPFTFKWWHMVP

Measured: IC50

Chain of Protein-arginine deiminase type-3 (Homo sapiens) (Q9ULW8 whole entry, looked up): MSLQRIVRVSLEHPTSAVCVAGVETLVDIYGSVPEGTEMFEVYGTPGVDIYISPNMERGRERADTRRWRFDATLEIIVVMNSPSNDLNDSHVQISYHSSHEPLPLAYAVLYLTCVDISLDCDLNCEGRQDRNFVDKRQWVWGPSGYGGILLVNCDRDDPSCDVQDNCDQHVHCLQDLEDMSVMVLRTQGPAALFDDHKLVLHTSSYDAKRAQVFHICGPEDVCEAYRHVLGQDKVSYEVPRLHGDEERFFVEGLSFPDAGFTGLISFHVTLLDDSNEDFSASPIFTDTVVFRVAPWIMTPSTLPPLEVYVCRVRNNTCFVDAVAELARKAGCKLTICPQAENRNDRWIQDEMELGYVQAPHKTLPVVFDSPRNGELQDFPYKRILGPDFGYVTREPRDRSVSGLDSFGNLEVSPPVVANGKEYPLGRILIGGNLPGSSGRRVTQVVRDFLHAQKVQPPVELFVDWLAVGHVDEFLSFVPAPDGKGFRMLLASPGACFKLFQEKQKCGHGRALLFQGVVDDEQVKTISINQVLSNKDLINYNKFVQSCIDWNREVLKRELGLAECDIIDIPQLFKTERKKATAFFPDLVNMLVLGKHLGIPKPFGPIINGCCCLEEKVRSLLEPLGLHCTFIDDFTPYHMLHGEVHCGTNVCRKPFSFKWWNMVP
Chain of Protein-arginine deiminase type-1 (Homo sapiens) (Q9ULC6 whole entry, looked up): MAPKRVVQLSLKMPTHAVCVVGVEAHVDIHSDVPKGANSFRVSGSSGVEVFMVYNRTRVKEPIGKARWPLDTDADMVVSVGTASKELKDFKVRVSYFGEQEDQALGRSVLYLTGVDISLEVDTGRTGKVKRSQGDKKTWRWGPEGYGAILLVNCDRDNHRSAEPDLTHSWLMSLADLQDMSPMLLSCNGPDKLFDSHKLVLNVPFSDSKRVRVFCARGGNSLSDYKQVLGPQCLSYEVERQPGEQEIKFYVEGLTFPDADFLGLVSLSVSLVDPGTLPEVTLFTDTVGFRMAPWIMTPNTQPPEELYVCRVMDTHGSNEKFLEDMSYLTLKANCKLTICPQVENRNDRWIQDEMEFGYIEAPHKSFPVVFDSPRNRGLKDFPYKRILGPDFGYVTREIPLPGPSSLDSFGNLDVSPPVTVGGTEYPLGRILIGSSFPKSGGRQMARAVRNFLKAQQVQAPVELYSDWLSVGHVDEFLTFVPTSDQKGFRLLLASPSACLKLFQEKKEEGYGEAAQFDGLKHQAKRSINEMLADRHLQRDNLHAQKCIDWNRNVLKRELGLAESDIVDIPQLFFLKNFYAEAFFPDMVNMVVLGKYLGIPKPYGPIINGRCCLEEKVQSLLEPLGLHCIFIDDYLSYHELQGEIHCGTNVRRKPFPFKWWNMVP

NC1=CC(=O)c2ccc(-c3cccc(C(=O)O)n3)nc2C1=O
active: [1] 70 nM | [2] 710 nM | [3] 200 nM
